# Assay results taken from US6541455B2, “Methods and kits for removing, treating, or preventing lice with driable pediculostatic agents” (priority 1999, dated 2003).
# Assays:
# [1] = tested on: head lice; assay: In vitro immersion reflex test: louse placed in a drop of wet agent on a microscope slide; parameters: species or system Pediculus humanus capitis; details: water by itself
# Excerpt: Driable pediculostatic agents useful in the methods and kits of the present invention are characterized by their ability to induce an immersion reflex in lice in their wet form and to keep the lice in the immersion reflex once dried. The following in vitro test can be conveniently used to determine whether any individual agent is a pediculostatic agent, and can further be used for routine screening of agents—such as those from natural products libraries and combinatorial chemical libraries—to identify those that can be used in the methods, compositions, and kits of the present invention:
# 1. Contact a louse with an agent suspected of being a pediculostatic agent; and
# 2. Observe whether the louse becomes immobile.
# Observations can readily be performed using a standard inexpensive light microscope with 10× or 40× magnification. The length of time necessary to render the louse completely immobile, in minutes, is the Immersion Reflex Index of the agent tested.
# Ten crawling lice were obtained from patients with head lice and each one placed on a separate microscope slide for observation under a microscope at 10× or 40× power. […] Within 6 seconds of application, they stopped all spontaneous movement. Usually within 30 seconds, and always within 60 seconds, they would not respond to contact by a probe and ceased previously visible gastrointestinal motility. […]
# [2] = tested on: head lice; assay: In vitro test of agent dried onto lice (driable pediculostatic agent test); parameters: species or system Pediculus humanus capitis; details: water by itself
# Excerpt: Contact a louse with a pediculostatic agent for a period of time sufficient to immobilize the louse (i.e., for at least 1× the Immersion Reflex Index of the agent);
# Dry the agent onto the louse, either by air-drying or by application of heat, and observe whether the louse remains immobilized.
# The period of time necessary for a particular dried agent to kill the louse can be conveniently determined by rinsing the dried agent off lice as a function of time and observing whether the rinsed lice regain mobility upon drying off.
# Six crawling lice were obtained from patients with head lice and each placed in a drop of […] ® Cleanser as described in EXAMPLE 1. After 2 min., the cleanser was dried onto the lice by air drying (4 lice) or gentle warm air from a hair dryer (2 lice).
smiles,measurement,setting,value
O [water],induction of the immersion reflex in lice,[1],triggers the immersion reflex
same,lice upon drying of the agent,[2],recover and regain mobility
